From patent US20230218544A1, “TREATMENT METHODS AND FORMULATIONS” (Curtin University, priority 2020, published 2023)
Entries after “also recorded” stand apart in the source; their conditions may differ.

Legend:
[1] = test system: HEI-OC1 cells; assay: Cisplatin cytotoxicity in inner ear sensory cells; assay type: cell-based, mouse; conditions: concentration used in subsequent experiments to ensure IC 50; 24 hours; read-out: IC 50 on cell viability
Description: House Ear Institute-Organ of Corti 1 (HEI-OC1) cells provided by Y J. Seo (Yonsei University, wonju, Korea) and F. Kalinec, (House Ear Institute, (Los Angeles, Calif., USA) were cultured in high-glucose Dulbecco's modified Eagle's medium (DMEM; Lonza, USA) supplemented with 10% Fetal bovine serum (FBS; Gibco BRL, USA) and 50 U/ml gamma-interferon (PEPRO TECH, INC. USA) without any antibiotics in a permissive condition (33° C., 10% CO2). For the non-permissive condition, cultured cells were cultured in the permissive condition for a certain period (Kalinec G, Thein P, Park C, Kalinec F. HEI-OC1 cells as a model for investigating drug cytotoxicity. […] Growth curves were performed to identify the growth patterns of cells in each condition. Cells cultured at 33° C., in a 10% CO2 atmosphere condition were recorded on day 0 after cell counting before seeding. Cells were recovered stripped daily from the cell dish and enumerated. This was done then, cell counted, confirmed for up to 14 days. Following the shift, cells were enumerated daily for 14 days. As explained above, HEI-OC1 cells were cultured in permissive conditions (33° C., 10% CO2) until day 5 and then transferred to the non-permissive condition (39° C., 5% CO2).
High-glucose DMEM supplemented with 0.5% FBS was used. […]

[2] = test system: guinea pig model of ototoxicity; assay: Experimental Example 3: round window CAP thresholds after kanamycin and furosemide ototoxicity; assay type: in vivo, guinea pigs (Cavia porcellus)
Excerpt: The animal was then removed from isoflurane, and allowed to recover slowly under close observation. […] Animals were then deeply anaesthetized, and euthanized via cardiac fixation for temporal bones harvesting.

[3] = test system: HEI-OC1 cells; assay: Cell viability with cisplatin and probucol (oto-protection); assay type: cell-based, mouse
Description: House Ear Institute-Organ of Corti 1 (HEI-OC1) cells provided by Y J. Seo (Yonsei University, wonju, Korea) and F. Kalinec, (House Ear Institute, (Los Angeles, Calif., USA) were cultured in high-glucose Dulbecco's modified Eagle's medium (DMEM; Lonza, USA) supplemented with 10% Fetal bovine serum (FBS; Gibco BRL, USA) and 50 U/ml gamma-interferon (PEPRO TECH, INC. USA) without any antibiotics in a permissive condition (33° C., 10% CO2). For the non-permissive condition, cultured cells were cultured in the permissive condition for a certain period (Kalinec G, Thein P, Park C, Kalinec F. HEI-OC1 cells as a model for investigating drug cytotoxicity. Hearing Res. 2016; 335:105-117. doi:10.1016/j.heares.2016.02.019). Growth curves were performed to identify the growth patterns of cells in each condition. Cells cultured at 33° C., in a 10% CO2 atmosphere condition were recorded on day 0 after cell counting before seeding. Cells were recovered stripped daily from the cell dish and enumerated. This was done then, cell counted, confirmed for up to 14 days. Following the shift, cells were enumerated daily for 14 days. As explained above, HEI-OC1 cells were cultured in permissive conditions (33° C., 10% CO2) until day 5 and then transferred to the non-permissive condition (39° C., 5% CO2).
Cisplatin was from Sigma Chemical Co. (St. Louis, Mo., USA). […]

[4] = test system: guinea pig model of ototoxicity; assay: Experimental Example 4: CAP thresholds in ototoxicity animal model with kanamycin and furosemide; assay type: in vivo, guinea pigs (Cavia porcellus); conditions: for difference of CAP between ototoxicity and ototoxicity with probucol sides: day 14 post-treatment
Description: Experiments were performed on 9 adult guinea pigs (Cavia porcellus) of either sex with body weights between 250 and 350 g. All experimental procedures were approved by The University of Curtin Animal Ethics Committee.
For all experiments, each animal first underwent a recovery surgery at day ‘zero’ to inject.
For the recovery surgery, each animal was given a 0.05 ml subcutaneous injection of Temgesic (Buprenorpherine; Reckitt Benckiser, Auckland NZ) and 0.1 ml of Atrosine (0.6 mg/ml atropine sulphate; Apex Laboratories, NSW, Australia) before being anesthetized using isoflurane (2-5%). The temperature was maintained using an electric heating pad, and lignocaine was used as a local anesthetic. While using aseptic techniques, animals were mounted on a custom ear-bar setup, and the left bulla surgically opened via a dorsal approach providing a view of the left round window, using aseptic techniques. Before the drug administrations, the AgCl ball-electrode (reference in the neck) was placed on the round window for recording compound action potential (CAP) responses (Brown D J, Chihara Y, Curthoys I S, Wang Y, Bos M. Changes in cochlear function during acute endolymphatic hydrops development in guinea pigs. Hearing Res. 2013; 296 (J. Neurophysiol. 101 2009):96-106. doi:10.1016/j.heares.2012.12.004; Brown D J, Pastras C J, Curthoys I S, Southwell C S, Roon L V. Endolymph movement visualized with light sheet fluorescence microscopy in an acute hydrops model. Hearing Res. 2016; 339 (PloS one 7 2012):112-124. doi:10.1016/j.heares.2016.06.007; and Brown D J, Sokolic L, Fung A, Pastras C J. Response of the Inner Ear to Lipopolysaccharide Introduced Directly into Scala Media. Hearing Res. 2018; 370 (Otol Neurotol 32 2011):105-112. doi:10.1016/j.heares.2018.10.007).
The bulla opening was resealed with dental cement before the overlying skin was sutured. The animal was then removed from isoflurane, and allowed to recover slowly under close observation. During recovery, the animal was given a subsequent 0.05 ml i.p. dose of Temgesic, along with an oral delivery of 1 ml Ibuprofen (40 mg/ml; Reckitt Benckiser Pty Ltd, Australia). Animals were then allowed to recover for 14 days (±3) days. For following CAP threshold measurements after 14 days, the bulla was re-opened with same procedures. Thereafter, animals were re-anaesthetized and mounted on the ear-bars, for a repeated measure of CAP thresholds described previously. Animals were then deeply anaesthetized, and euthanized via cardiac fixation for temporal bones harvesting.
The standard deviation of CAP thresholds was measured at day 0.

[5] = test system: spiral ganglion neurons (SGNs); assay: Light sheet microscopy quantification of spiral ganglion neuron (SGN) density in cochlea; assay type: in vivo, guinea pig
Description: Harvested temporal bones were immersed in 4% para-formaldehyde overnight at 4° C., before being decalcified for 14-18 days in 10% EDTA. They were then rinsed with Sorenson's buffer, dehydrated in a series of 50, 75, 90 and 100% ethanol (8-12 h each step), and immersed in Spalteholz solution for 24 h, to render the sample optically transparent. Samples were then imaged using a custom light-sheet fluorescence microscope (LSFM), based on the setup described by Santi et al. (2009) (Santi P A. Light Sheet Fluorescence Microscopy. J Histochem Cytochem. 2010; 59(2):129-138. doi:10.1369/0022155410394857), where ‘virtual slices’ of the inner ear were imaged at […] steps in the axial plane, detailed in Brown et al. (2016) (Brown D J, Pastras C J, Curthoys I S, Southwell C S, Roon L V. Endolymph movement visualized with light sheet fluorescence microscopy in an acute hydrops model. Hearing Res. 2016; 339 (PloS one 7 2012):112-124. doi:10.1016/j.heares.2016.06.007), providing a ‘z-stack’ of between 300 and 1000 virtual slice images. LSFM images were analyzed by a blinded investigator, for later comparison to the functional data and treatment. LSFM z-stacks were analyzed using ImageJ software, with 3D volumes segmented for volume analysis using the Segmentation3D plugin. TIFF files collected from the light sheet microscope were reconstructed into representative 3D images. […]

N.N.[Cl][Pt][Cl] [cisplatin] gave an IC50 [1] of roughly 20 µM.

CC(C)(Sc1cc(C(C)(C)C)c(O)c(C(C)(C)C)c1)Sc1cc(C(C)(C)C)c(O)c(C(C)(C)C)c1 [probucol, 2,6-ditert-butyl-4-[2-(3,5-ditert-butyl-4-hydroxyphenyl)sulfanylpropan-2-ylsulfanyl]phenol] was tested, and the “mean difference between left and right CAP thresholds” value ([2]; 2 kHz, insignificant) was 3 dB, the “hearing loss (CAP thresholds compared to baseline), probucol-treated cochleae” value ([2]; about 100 μL probucol-gel on round window, after kanamycin and furosemide, significant at all frequencies except 6 and 10 kHz) was 11-40 dB and the “average CAP threshold compared to non-probucol treated cochlea” value ([2]; at 6 kHz and 10 kHz) was “significantly lower”. For the same compound, the “cell survival compared with control” value ([3]; probucol 20 μM and 50 μM with cisplatin, 24 h) was “promoted the cell survival”, the “cellular mitogenesis compared with control” value ([3]; probucol 100 μM, attributed to high concentration of vehicle DMSO) was “significant decrease in cellular mitogenesis” and the “difference of CAP between ototoxicity and ototoxicity with probucol sides” value (from here on “difference … with probucol sides”) ([4]; 6 kHz, probucol injected into bulla around RWM) was 23.4±9.49 dB. For the same compound, the “difference … with probucol sides” value ([4]; 10 kHz) was 21.89 ± 7.72 dB, the “difference … with probucol sides” value ([4]; 14 kHz) was 16.56±4.15 dB and the “hearing protection in the ototoxicity guinea pig model” value ([4]; guinea pig, in vivo) was “hearing protection effect”. For the same compound, the “thresholds of hearing (CAP) versus control side” value ([4]; significant only at 6 and 10 kHz) was “better thresholds of hearing”, the “density of SGNs in the basal turn versus ototoxicity alone group” value ([5]; basal turn of cochlea, significant) was “significantly larger density; also recorded: kept not to be injured” and the “effect on hair cell damages by ototoxicity drugs” value ([5]; guinea pig, in vivo) was “protective effect”.
